Measured values taken from patent US20160303095A1, “METHODS OF TREATING HEPATITIS B VIRUS” (Gilead Sciences, Inc., priority 2015, published 2016).
Read-outs that look alike come from different tables or passages of the source.

Columns and labels:
KDM6B = target: T1, KDM6B (Homo sapiens, UniProt O15054); assay: Biochemical KDM inhibition assay (LANCE), KDM6B; details: read-out: Biochemical IC50 KDM 6B
T1 construct: host or cells: Sf9 cells
Protocol: (§1) Representative compounds were characterized for their inhibition of KDM5 using biotinylated histone substrates. Inhibition was measured in vitro (CEREP Poitier, Le Bois l'Evêque, France) following experimental conditions described in Table 2. Briefly, the test compound, reference compound or water (control) was mixed with about 2-20 ng of recombinant, Human enzymes expressed in Sf9 cells in a buffer containing 45 mM Hepes/Tris (pH 7), 5 μM FAS, 100 μM ascorbic acid, 10 μM 2-oxoglutarate, 0.01% Tween 20 and 0.01% BSA. Thereafter, the reaction was initiated by adding the biotin-labeled substrate, and the mixture was incubated for 10-30 min at room temperature. For basal control measurements, the enzyme was omitted from the reaction mixture. Following incubation the reaction was stopped by adding 1 mM EDTA. After 5 min, the anti-methyl histone antibody labeled with europium chelate and the Ulight streptavidine (Perkin Elmer Waltham, Mass.) were added. After 60 min more, the fluorescence transfer was measured at λex=320 nm and λem=620 and λem=665 nm using a microplate reader (Envision, Perkin Elmer) (LANCE). The enzyme activity was determined by dividing the signal measured at λem=665 nm by that measured at 620 nm (ratio).

KDM2A = target: T2, KDM2A (Homo sapiens, UniProt Q9Y2K7); assay: Biochemical KDM inhibition assay (LANCE), KDM2A; details: read-out: Biochemical IC50 KDM 2A
T2 construct: host or cells: Sf9 cells
T2 sequence (Q9Y2K7 1-1162): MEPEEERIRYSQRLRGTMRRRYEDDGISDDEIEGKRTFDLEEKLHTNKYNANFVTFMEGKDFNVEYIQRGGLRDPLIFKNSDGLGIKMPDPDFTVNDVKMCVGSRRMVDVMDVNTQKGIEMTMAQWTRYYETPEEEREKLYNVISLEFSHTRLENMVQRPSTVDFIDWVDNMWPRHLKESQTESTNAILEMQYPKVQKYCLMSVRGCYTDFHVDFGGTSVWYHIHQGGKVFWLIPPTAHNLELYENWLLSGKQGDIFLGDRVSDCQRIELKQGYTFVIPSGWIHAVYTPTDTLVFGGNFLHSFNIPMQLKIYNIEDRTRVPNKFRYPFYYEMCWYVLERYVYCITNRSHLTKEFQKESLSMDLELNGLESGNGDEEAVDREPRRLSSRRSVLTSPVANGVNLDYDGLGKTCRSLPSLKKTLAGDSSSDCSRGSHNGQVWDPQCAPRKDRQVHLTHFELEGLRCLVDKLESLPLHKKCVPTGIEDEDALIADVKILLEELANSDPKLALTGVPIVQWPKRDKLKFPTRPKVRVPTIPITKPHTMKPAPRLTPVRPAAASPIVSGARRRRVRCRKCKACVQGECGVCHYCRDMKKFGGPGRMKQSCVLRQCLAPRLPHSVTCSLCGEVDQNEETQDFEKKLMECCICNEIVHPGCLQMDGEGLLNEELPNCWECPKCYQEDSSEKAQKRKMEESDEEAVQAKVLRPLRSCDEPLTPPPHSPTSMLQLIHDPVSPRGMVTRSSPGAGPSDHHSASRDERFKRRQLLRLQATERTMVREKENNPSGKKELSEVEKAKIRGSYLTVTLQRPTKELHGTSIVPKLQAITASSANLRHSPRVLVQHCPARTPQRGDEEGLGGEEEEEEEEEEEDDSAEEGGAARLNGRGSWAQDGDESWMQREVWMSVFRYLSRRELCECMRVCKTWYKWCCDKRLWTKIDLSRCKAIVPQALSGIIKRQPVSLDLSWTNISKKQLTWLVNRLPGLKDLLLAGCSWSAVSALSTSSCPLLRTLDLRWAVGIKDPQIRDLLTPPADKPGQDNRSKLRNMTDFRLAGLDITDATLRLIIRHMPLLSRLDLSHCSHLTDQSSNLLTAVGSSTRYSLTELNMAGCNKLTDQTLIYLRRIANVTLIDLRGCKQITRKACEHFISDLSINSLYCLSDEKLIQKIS
Protocol: as §1

HBV = assay: Determination of HBV viral RNA by RT-qPCR in PHH; type: cell-based; details: Hepatitis B virus, read-out: HBV RNA EC50
Protocol: HBV antiviral activity was assessed in primary human hepatocytes (PHH) in a 96-well format. PHH were (Life Technologies, Chicago, 11) plated on collagen coated tissue culture plates using Plating Media containing William's Medium E supplemented with 1% Penicillin/Streptomycin, 4 μg/mL human recombinant insulin, 2 mM glutamax, 15 mM Hepes, 1 μM dexamethasone and 5% fetal bovine serum (Life Technologies, Cat#A12176-01 Life Technologies, Chicago, Ill.). After a 4-hour incubation at 37° C., cells were switched to Maintenance Media (Cat#CM4000-A15564 Life Technologies, Chicago, Ill.) containing William's Medium E supplemented with 0.5% Penicillin/Streptomycin, 6.25 μg/mL human recombinant insulin, 6.25 μg/mL human transferrin, 6.25 ng/mL selenous acid, 1.25 mg/mL bovine serum albumin, 5.35 μg/mL linoleic acid, 2 mM glutamax, 15 mM Hepes, 0.1 μM dexamethasone, 2% fetal bovine serum, and 2% DMSO (Cat#D2650 Sigma, St. Louis, Mo.). On the next day, cells were infected with approximately 500 genome equivalent of selected HBV clinical isolates (21P (GTA), 32P (GTA), 91P (GTA), AD38 (GTD), 65P (GTD) or 30P (GTE); ProteoGenex, Culver City, Calif.) per cell in Maintenance Media supplemented with 4% PEG 8000 (Cat#V3011 Promega, Madison, Wis.). After 24 hour incubation cells were washed three times with William's Medium E and fed with fresh Maintenance Media. Small molecule inhibitors targeting KDMs were serially diluted in Maintenance Media and added to cells at 3 days post infection (p.i.). Media with compounds was replenished every 2-3 days. Media collected on various days was used for determination of HBsAg and HBeAg levels by MSD ELISA, and HBV RNA by qPCR. All data were converted into percentages of the untreated control and non-linear regression was performed to calculate EC50 or CC50 values.
Following the Alamar Blue measurement, media was removed and total RNA from the cells was isolated using the RNeasy 96 Kit (Cat#74182 Qiagen, Venlo, Netherlands). […] GAPDH mRNA levels were also measured by RT-qPCR to control for differences in cell number, toxicity, and RNA purification efficiency (Cat#4390849 Life Technologies, Chicago Ill.). HBV mRNA Ct values were normalized using their cognate GAPDH mRNA Ct values by the delta-delta-Ct calculation and then expressed as a percentage of the non-targeting scrambled control.

T1 sequence (O15054 whole entry): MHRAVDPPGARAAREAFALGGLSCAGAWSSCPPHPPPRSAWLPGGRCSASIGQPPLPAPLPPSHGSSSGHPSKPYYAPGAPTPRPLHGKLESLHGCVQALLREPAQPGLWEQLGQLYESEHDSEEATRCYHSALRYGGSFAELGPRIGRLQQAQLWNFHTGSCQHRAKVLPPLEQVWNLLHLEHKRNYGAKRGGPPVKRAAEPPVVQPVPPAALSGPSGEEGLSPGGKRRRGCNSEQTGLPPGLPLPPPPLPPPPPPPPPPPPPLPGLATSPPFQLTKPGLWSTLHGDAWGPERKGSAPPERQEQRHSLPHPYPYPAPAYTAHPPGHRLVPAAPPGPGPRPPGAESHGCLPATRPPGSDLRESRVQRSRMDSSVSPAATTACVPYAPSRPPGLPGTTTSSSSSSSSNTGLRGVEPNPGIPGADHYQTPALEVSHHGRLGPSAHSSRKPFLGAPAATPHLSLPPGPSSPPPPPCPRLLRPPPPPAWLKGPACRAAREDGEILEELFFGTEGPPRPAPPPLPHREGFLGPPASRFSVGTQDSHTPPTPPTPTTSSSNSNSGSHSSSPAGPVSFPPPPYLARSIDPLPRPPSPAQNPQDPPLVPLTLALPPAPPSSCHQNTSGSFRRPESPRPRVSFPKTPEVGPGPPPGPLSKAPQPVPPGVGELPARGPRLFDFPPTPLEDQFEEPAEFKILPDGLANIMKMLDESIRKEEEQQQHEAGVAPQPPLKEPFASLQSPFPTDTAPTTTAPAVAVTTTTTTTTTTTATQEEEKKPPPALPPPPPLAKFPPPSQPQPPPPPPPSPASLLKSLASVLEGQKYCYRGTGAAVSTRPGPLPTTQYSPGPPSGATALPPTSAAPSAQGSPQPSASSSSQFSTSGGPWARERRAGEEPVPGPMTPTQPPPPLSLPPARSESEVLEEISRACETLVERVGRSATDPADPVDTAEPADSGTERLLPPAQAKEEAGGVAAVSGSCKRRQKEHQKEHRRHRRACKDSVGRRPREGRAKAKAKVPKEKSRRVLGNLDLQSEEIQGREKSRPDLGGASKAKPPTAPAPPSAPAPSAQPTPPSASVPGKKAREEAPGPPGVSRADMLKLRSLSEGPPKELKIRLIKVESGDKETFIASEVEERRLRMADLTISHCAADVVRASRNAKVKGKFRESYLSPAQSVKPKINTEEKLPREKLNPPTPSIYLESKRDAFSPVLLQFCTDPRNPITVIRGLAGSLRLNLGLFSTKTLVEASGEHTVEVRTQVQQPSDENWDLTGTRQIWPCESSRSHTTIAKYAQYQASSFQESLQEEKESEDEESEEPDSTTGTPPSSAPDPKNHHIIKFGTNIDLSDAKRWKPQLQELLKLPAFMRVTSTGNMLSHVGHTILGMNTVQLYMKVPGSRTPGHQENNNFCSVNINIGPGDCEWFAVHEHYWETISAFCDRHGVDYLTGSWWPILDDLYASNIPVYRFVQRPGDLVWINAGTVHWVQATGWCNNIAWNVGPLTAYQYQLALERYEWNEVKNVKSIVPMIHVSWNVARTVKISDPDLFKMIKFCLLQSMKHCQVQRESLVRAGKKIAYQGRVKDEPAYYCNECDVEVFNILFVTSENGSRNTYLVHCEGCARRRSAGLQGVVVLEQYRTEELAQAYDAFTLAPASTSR

With `CCN(CC)CCCCNCc1cc(C(=O)O)ccn1` [Example 18] the IC50 (KDM6B) was 27 µM and the IC50 (KDM2A) was 2000 nM.

In the case of `CCOC(=O)c1ccnc(CNCC(=O)N(CC)CCN(C)C)c1` [Example 8], the EC50 (HBV) is reported as 100 nM.

`Cc1cc(Cl)ccc1COc1ccnn1-c1cc(C(=O)O)ccn1` [Example 11] was tested, and the IC50 (KDM6B) was 0.28 µM and the IC50 (KDM2A) was 450 nM.

`Nc1c(C(=O)O)ccnc1C(=O)O` [Example 7, reference compound] showed an IC50 (KDM6B) of 7.8 µM, an IC50 (KDM2A) of 360 nM and an EC50 (HBV; HBV-infected PHH) of 224 nM.

Work on `O=C(O)c1ccncc1Nc1nn(CCN2CCC(F)(F)CC2)c2ccc(F)cc12` [Example 13] yielded an IC50 (KDM6B) of 0.4 µM and an IC50 (KDM2A) of 510 nM.

In the case of `CCN(CCN(C)C)C(=O)CNCc1cc(C(=O)O)ccn1` [Example 9], the IC50 (KDM6B) is reported as 4.1 µM and the IC50 (KDM2A) is reported as 650 nM.
